In BigSolDB 2.1:

O=C1NC(=O)c2ccccc21
solubility (mole fraction)
Settings | in acetone | in acetonitrile | in ethanol | in ethyl acetate | in isobutanol | in isopropanol | in methanol | in n-butanol | in n-propanol | in toluene
283.15 K | 0.00783 | 0.00145 | 0.00116 | 0.00388 | 0.0014 | 0.00159 | 0.00129 | 0.00166 | 0.00156 | 0.000253
285.65 K | 0.00854 | 0.00161 | 0.00133 | 0.00441 | 0.00155 | 0.00175 | 0.00142 | 0.00185 | 0.00173 | 0.000295
288.15 K | 0.00935 | 0.0018 | 0.00151 | 0.00498 | 0.00171 | 0.00198 | 0.00162 | 0.00203 | 0.00188 | 0.000348
290.65 K | 0.0101 | 0.00209 | 0.0017 | 0.00557 | 0.0019 | 0.0022 | 0.00183 | 0.00221 | 0.00203 | 0.000401
293.15 K | 0.011 | 0.00238 | 0.00193 | 0.00615 | 0.00206 | 0.00247 | 0.0021 | 0.00243 | 0.00222 | 0.000456
295.65 K | 0.0119 | 0.00271 | 0.00215 | 0.00677 | 0.00222 | 0.0027 | 0.00236 | 0.00266 | 0.00242 | 0.000514
298.15 K | 0.0128 | 0.00305 | 0.0024 | 0.00749 | 0.00242 | 0.00298 | 0.0026 | 0.00285 | 0.00263 | 0.000577
300.15 K | 0.0137 | 0.00335 | 0.0026 | 0.00813 | 0.0026 | 0.0033 | 0.00288 | 0.00308 | 0.00282 | 0.000624
303.15 K | 0.0149 | 0.00385 | 0.00302 | 0.00879 | 0.00292 | 0.00365 | 0.00317 | 0.00336 | 0.00308 | 0.000694
305.65 K | 0.0159 | 0.0043 | 0.00335 | 0.0097 | 0.00315 | 0.00402 | 0.00346 | 0.00362 | 0.00339 | 0.000756
308.15 K | 0.017 | 0.00472 | 0.00369 | 0.0105 | 0.0034 | 0.00438 | 0.00373 | 0.00393 | 0.00369 | 0.000828
310.65 K | 0.0181 | 0.00518 | 0.00409 | 0.0114 | 0.00368 | 0.00479 | 0.00405 | 0.00424 | 0.00399 | 0.0009
313.15 K | 0.0194 | 0.00577 | 0.00462 | 0.0125 | 0.00398 | 0.00523 | 0.00445 | 0.00456 | 0.0043 | 0.000969
315.65 K | 0.0209 | 0.00631 | 0.00523 | 0.0138 | 0.00428 | 0.00575 | 0.00483 | 0.0049 | 0.00466 | 0.00105
318.15 K | 0.0221 | 0.00686 | 0.00582 | 0.0152 | 0.00469 | 0.00632 | 0.00525 | 0.0054 | 0.005 | 0.00114
